Assays:
[1] = target: T1, human GLP1R (Homo sapiens, UniProt P43220); experiment: Human GLP1R DERET internalization assay; format: cell-based
[2] = Efficacy study: body weight loss in DIO mice; format: in vivo, C57BL/6 mice; details: s.c., 120 μg/kg QD, Day 30
Protocol: Males 24-30 weeks of age were used in the studies (n=7/group). Animals were housed one per cage in a normal light cycle room, under an approved IACUC protocol. […] Compound(s) or vehicle were given QD or when indicated 03D (every 3 days). […] Body weight and food intake were measured daily.

[3] = target: T1, human GLP1R; experiment: Human GLP1R DERET recycling assay; format: cell-based
Protocol: The extent to which agonists internalize or allow recycling of the human GLP1R was determined based on an optimized version of a RealTime FRET-based ‘DERET’ (Dissociation Enhanced Resonance Energy Transfer) assay. The technology relies on labeling of the SNAP-tagged GPCR with a SNAP-Lumi-Terbium (donor fluorophore, Cisbio, cat #SSNPTBD). The compounds are incubated with the cells over-expressing the GPCR of interest in the presence of an excess of fluorescein (acceptor fluorophore). When the GPCR is on the cell surface, the donor signal is quenched by the acceptor and the donor/acceptor ratio is low. As the GPCR internalizes, the donor signal is no longer quenched, and the acceptor is no longer excited so the donor/acceptor ratio increases. The addition of an excess of antagonist blocks further receptor internalization, allowing the receptor to recycle back to the membrane leading to a subsequent reduction in the donor/acceptor ratio. […] To generate triplicate dose response curves, compounds were serially diluted 3-fold in assay buffer, then added to the cell assay plate to a final volume of 40 μL and final top concentrations starting at 3 μM or less (depending on the case). […] EC0 wells with buffer only were also included. The plate FRET fluorescence was measured immediately using a Perkin Elmer Envision with LANCE/DELFIA D400 single mirror, excitation filter X320, and emission filters M615_203 (donor emission) and M515 (acceptor emission), and then measured every 30 min. […] Plates were kept at 37° C. between reads. Data was expressed as the ratio of donor/acceptor emissions using Microsoft Excel and plotted in GraphPad Prism.
Using this model, we determined a T1/2 rate at which the receptor recycled back to the membrane. We also determined a maximum percentage of receptor recycled as a proportion of the amount internalized initially.
The lower the internalization rate and the faster the receptor recycling rate the more the receptor is retained at the membrane.

[4] = Tolerability assessment: emesis and FI in obese monkeys; format: in vivo; details: single dose s.c. 30 μg/kg
Description: Efficacy was defined as a reduction in FI and BW. Tolerability, assessed as reduced and/or absence of emesis and retained interest in a selection of fruits and vegetables and peanuts as treats.

[5] = target: T2, mouse GLP1 receptor (mGLP1R) (Mus musculus, UniProt O35659); experiment: Mouse GLP1R cAMP agonist assay; format: cell-based; details: percent of GLP1(7-36) EC100
T2 construct: host or cells: HEK293T CRE-Luc (called HEK293), clone C3
T2 sequence (O35659 22-463): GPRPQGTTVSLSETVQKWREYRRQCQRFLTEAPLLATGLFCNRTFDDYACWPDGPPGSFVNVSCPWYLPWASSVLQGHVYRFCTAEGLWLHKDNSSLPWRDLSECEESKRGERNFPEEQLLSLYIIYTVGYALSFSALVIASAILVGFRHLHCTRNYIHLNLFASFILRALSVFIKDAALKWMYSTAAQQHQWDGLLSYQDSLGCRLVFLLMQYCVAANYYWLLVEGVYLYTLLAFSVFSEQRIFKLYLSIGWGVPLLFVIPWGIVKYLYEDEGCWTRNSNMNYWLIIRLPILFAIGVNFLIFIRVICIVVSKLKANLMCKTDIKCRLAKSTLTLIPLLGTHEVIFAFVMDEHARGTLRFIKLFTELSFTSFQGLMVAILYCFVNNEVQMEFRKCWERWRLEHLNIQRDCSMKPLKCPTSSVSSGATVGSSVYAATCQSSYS
Protocol: Compounds described herein were tested in the following cellular assays that measures the intracellular cAMP concentration. The cAMP is generated by the activation of GLP1R. EC50 is defined as the concentration of the compound that leads to half of the maximum response (after baseline correction).
The following day, cells were transfected as follows. The DNA complex was prepared as 0.020 μg/μL by adding 37 μg of plasmid DNA encoding mouse GLP1R cDNA (GeneCopoeia, cat #EX-Mm23901-M67; NCBI Reference Sequence: NM_021332.2) in 1758 μL Opti-MEM solution. Then, 112 μL of FuGENE® HD reagent were added to that by mixing carefully. After 5-10 min incubation at RT, 850 μL of DNA complex per well were added to the cells, and mixed thoroughly.

[6] = Acute food intake study in DIO mice; format: in vivo, C57BL/6 mice; details: single s.c., 120 μg/kg
Protocol: Males 24-30 weeks of age were used in the studies. Animals were housed one per cage in a normal light cycle (6:00 am-6:00 pm lights on, otherwise lights off) room, under an approved IACUC protocol. […] At the start of the study, food weight was recorded and animals were subcutaneously dosed with a test compound.

[7] = target: T3, mouse GLP1 receptor (mGLP1R), on HEK293-mGLP1R CRE-Luc (Clone C3) cells (mouse, UniProt O35659 22-463); experiment: cell-based or functional assay
T3 sequence (looked up): T2 sequence (O35659 22-463)

[8] = target: human GLP1R (hGLP1R) with a Prolink tag, on CHO-hGLP1R-β-arrestin cells (human, UniProt P43220 24-463); experiment: cell-based or functional assay
[9] = target: T4, human GLP1 receptor (hGLP1R) fused with a SNAP tag, on HEK293-SNAP-hGLP1R-GloSensor cells (human, UniProt P43220 24-463); experiment: cell-based or functional assay
[10] = target: cynomolgus GLP1 receptor (cynoGLP1R), on HEK293-cynoGLP1R F6 cells (cynomolgus, UniProt F8V479 24-463); experiment: cell-based or functional assay
[11] = target: T4, human GLP1 receptor (hGLP1R) fused with …; experiment: cell-based or functional assay; remark: listed apart in the source

T1 sequence (P43220 24-463): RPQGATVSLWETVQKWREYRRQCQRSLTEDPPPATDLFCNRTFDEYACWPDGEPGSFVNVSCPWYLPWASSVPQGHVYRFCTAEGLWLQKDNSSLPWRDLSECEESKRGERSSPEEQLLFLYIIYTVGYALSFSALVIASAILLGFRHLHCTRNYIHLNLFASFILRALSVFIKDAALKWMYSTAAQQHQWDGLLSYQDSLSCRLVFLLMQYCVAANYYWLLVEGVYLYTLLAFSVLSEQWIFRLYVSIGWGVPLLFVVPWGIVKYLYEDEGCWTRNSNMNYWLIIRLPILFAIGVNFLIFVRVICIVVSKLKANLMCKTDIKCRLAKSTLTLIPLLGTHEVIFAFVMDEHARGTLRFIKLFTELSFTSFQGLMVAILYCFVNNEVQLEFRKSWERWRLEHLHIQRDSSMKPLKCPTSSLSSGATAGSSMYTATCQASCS

## semaglutide
[1]
  Emax mean: 91%
[2]
  Weight loss: −17.8 ± 1.2 % baseline
[3]
  Receptor recycled mean: 64%
  T1/2 mean: 1.677 h
[4]
  FI reduction observed: Yes
[5]
  Emax mean: 106%
[6]
  FI @ 24 h: −86 ± 1 % baseline

B1: Compound 6 (peptide)
peptide: HXEGTFTSDVSSYLEGQAAKEFIAWLVRGRG
modifications: Aib at position 8 (GLP-1 numbering); side-chain NH of the Lys residue acylated, via a PEG24 linker, with the 11-carbamoyl-henicosane-1,11,21-tricarboxylic acid moiety (from NHS ester Intermediate 29)
[7]
  mGLP1R cAMP assay (HTRF): EC50 mean: 0.034 nM
[8]
  β-arrestin recruitment (PathHunter): EC50 mean: 70 nM
[9]
  hGLP1R cAMP assay (GloSensor): EC50 mean: 0.00573 nM

B2: Compound 5 (peptide)
peptide: B1 peptide
modifications: Aib at position 8 (GLP-1 numbering); side-chain NH of the Lys residue acylated, via a PEG2 linker, with 2-undecyltridecanedioic acid (from NHS ester Intermediate 22)
[10]
  cynoGLP1R cAMP assay (HTRF): EC50 mean: 0.577 nM
  cynoGLP1R cAMP assay (HTRF): Emax mean, % of GLP1(7-36): 103%
[11]
  receptor recycling (DERET, after Exendin 9-39): T1/2 mean: 2.25 h

— patent US20240247042A1, “GLUCAGON LIKE PEPTIDE COMPOUNDS” (Novartis AG, priority 2021, published 2024)
